≈ marks a conversion by molar mass, not a printed value. One block for each compound: values may come before it. Calls of active or inactive are those of the source. The rule behind the calls is not given here.
What was measured:
Acinetobacter baumannii [1] = assay: Antibiofilm activity against Acinetobacter baumannii ATCC19606 assessed as inhibition of biofilm formation incubated for 18 to 24 hrs by crystal violet staining based assay; format: functional, organism-based
Acinetobacter baumannii [2] = assay: Antibiofilm activity against Acinetobacter baumannii 1913061 assessed as inhibition of biofilm formation incubated for 18 to 24 hrs by crystal violet staining based assay; format: functional, organism-based
Acinetobacter baumannii [3] = assay: Antibiofilm activity against Acinetobacter baumannii 1925052 assessed as inhibition of biofilm formation incubated for 18 to 24 hrs by crystal violet staining based assay; format: functional, organism-based
Acinetobacter baumannii [4] = assay: Antibiofilm activity against Acinetobacter baumannii 1780608 assessed as inhibition of biofilm formation incubated for 18 to 24 hrs by crystal violet staining based assay; format: functional, organism-based
Acinetobacter baumannii [5] = assay: Antibiofilm activity against Acinetobacter baumannii S1 assessed as inhibition of biofilm formation incubated for 18 to 24 hrs by crystal violet staining based assay; format: functional, organism-based
[6] = tested on: Staphylococcus epidermidis; assay: Antibiofilm activity against Staphylococcus epidermis ATCC 102555 assessed as inhibition rate of biofilm formation at 200 uM incubated for 18 to 24 hrs by crystal violet staining based assay relative to control; format: functional; conditions: time 18-24 hrs
Acinetobacter baumannii [7] = assay: Antibiofilm activity against Acinetobacter baumannii 1778027 assessed as inhibition rate of biofilm formation at 200 uM incubated for 18 to 24 hrs by crystal violet staining based assay relative to control; format: functional; conditions: time 18-24 hrs
Escherichia coli = assay: Antibiofilm activity against Escherichia coli Dh5alpha assessed as inhibition rate of biofilm formation at 200 uM incubated for 18 to 24 hrs by crystal violet staining based assay relative to control; format: functional; conditions: DH5-alpha, time 18-24 hrs
Pseudomonas aeruginosa = assay: Antibiofilm activity against Pseudomonas aeruginosa ATCC 27853 assessed as inhibition rate of biofilm formation at 200 uM incubated for 18 to 24 hrs by crystal violet staining based assay relative to control; format: functional; conditions: time 18-24 hrs
Staphylococcus aureus = assay: Antibiofilm activity against Staphylococcus aureus ATCC […] assessed as inhibition rate of biofilm formation at 200 uM incubated for 18 to 24 hrs by crystal violet staining based assay relative to control; format: functional; conditions: time 18-24 hrs
Acinetobacter baumannii [8] = assay: Antibacterial activity against Acinetobacter baumannii S1 assessed as planktonic growth inhibition incubated for 18 to 24 hrs by CLSI protocol based assay; format: functional; conditions: time 18-24 hrs
Acinetobacter baumannii [9] = assay: Antibiofilm activity against Acinetobacter baumannii S1 assessed as inhibition rate of biofilm formation at 100 uM incubated for 18 to 24 hrs by crystal violet staining based assay (reference value: 28.8 +/- 8.21%); format: functional; set-up: scale not given: the % may be the effect or the level left; conditions: time 18-24 hrs
Acinetobacter baumannii [10] = assay: Synergistic antibacterial activity against Acinetobacter baumannii assessed as planktonic growth inhibition incubated for 18 to 24 hrs in the presence of oxacillin by CLSI protocol based checkerboard assay; format: functional; conditions: time 18-24 hrs
Acinetobacter baumannii [11] = assay: Synergistic antibacterial activity against Acinetobacter baumannii assessed as fractional inhibitory concentration index incubated for 18 to 24 hrs in the presence of gentamycin sulphate by CLSI protocol based checkerboard assay; format: functional; conditions: time 18-24 hrs
Acinetobacter baumannii [12] = assay: Synergistic antibacterial activity against Acinetobacter baumannii assessed as fractional inhibitory concentration index incubated for 18 to 24 hrs in the presence of oxacillin by CLSI protocol based checkerboard assay; format: functional; conditions: time 18-24 hrs
Acinetobacter baumannii [13] = assay: Antibiofilm activity against Acinetobacter baumannii 1778027 assessed as inhibition of biofilm formation incubated for 18 to 24 hrs by crystal violet staining based assay; format: functional, organism-based
Acinetobacter baumannii [14] = assay: Antibacterial activity against Acinetobacter baumannii assessed as planktonic growth inhibition incubated for 18 to 24 hrs by CLSI protocol based assay; format: functional; conditions: time 18-24 hrs
Acinetobacter baumannii [15] = assay: Antibiofilm activity against Acinetobacter baumannii assessed as reduction in biofilm thickness at 100 uM incubated for 24 hrs by Alexa fluor 488 staining based confocal laser microscopic analysis (reference value: 25.91); format: functional
Acinetobacter baumannii [16] = assay: Synergistic antibacterial activity against Acinetobacter baumannii assessed as planktonic growth inhibition incubated for 18 to 24 hrs in the presence of gentamycin sulphate by CLSI protocol based checkerboard assay; format: functional; conditions: time 18-24 hrs
3T3-L1 [17] = assay: Cytotoxicity against mouse 3T3-L1 cells assessed as reduction in cell viability at 100 uM incubated for 24 hrs by MTT assay relative to control; format: toxicity, cell-based; conditions: 3t3-l1, 24 h
Acinetobacter baumannii [18] = assay: Antibiofilm activity against Acinetobacter baumannii assessed as reduction in extracellular polysaccharides at 100 uM incubated for 1 hrs by ELISA analysis; format: functional; set-up: scale not given: the % may be the effect or the level left
Acinetobacter baumannii [19] = assay: Antibiofilm activity against Acinetobacter baumannii assessed as reduction in bacterial motility in agar plates by quorum sensing process at 100 uM incubated for 24 hrs; format: functional, organism-based
3T3-L1 [20] = assay: Cytotoxicity against mouse 3T3-L1 cells assessed as reduction in cell viability at 25 uM incubated for 24 hrs by MTT assay relative to control; format: toxicity, cell-based; conditions: 3t3-l1, 24 h
3T3-L1 [21] = assay: Cytotoxicity against mouse 3T3-L1 cells assessed as reduction in cell viability at 50 uM incubated for 24 hrs by MTT assay relative to control; format: toxicity, cell-based; conditions: 3t3-l1, 24 h
Acinetobacter baumannii [22] = assay: Synergistic antibacterial activity against Acinetobacter baumannii assessed as fractional inhibitory concentration index incubated for 18 to 24 hrs in the presence of chloramphenicol by CLSI protocol based checkerboard assay; format: functional; conditions: time 18-24 hrs
3T3-L1 [23] = assay: Cytotoxicity against mouse 3T3-L1 cells assessed as reduction in cell viability at 200 uM incubated for 24 hrs by MTT assay relative to control; format: toxicity, cell-based; conditions: 3t3-l1, 24 h
Acinetobacter baumannii [24] = assay: Synergistic antibacterial activity against Acinetobacter baumannii assessed as planktonic growth inhibition incubated for 18 to 24 hrs in the presence of chloramphenicol by CLSI protocol based checkerboard assay; format: functional; conditions: time 18-24 hrs
3T3-L1 [25] = assay: Cytotoxicity against mouse 3T3-L1 cells assessed as reduction in cell viability at 12.5 uM incubated for 24 hrs by MTT assay relative to control; format: toxicity, cell-based; conditions: 3t3-l1, 24 h

SMILES: O=C(Cc1cccc(Br)c1)N[C@H]1CCOC1=O
IC50 (Acinetobacter baumannii [1]): 85.3 µM
IC50 (Acinetobacter baumannii [2]): 22.8 µM
IC50 (Acinetobacter baumannii [3]): 195 µM
IC50 (Acinetobacter baumannii [4]): 120 µM
IC50 (Acinetobacter baumannii [5]): 143 µM
inhibition at 200 µM [6]: < 50%
inhibition at 200 µM (Acinetobacter baumannii [7]): < 50%
inhibition at 200 µM (Escherichia coli): < 50%
inhibition at 200 µM (Pseudomonas aeruginosa): < 50%
inhibition at 200 µM (Staphylococcus aureus): < 50%

SMILES: CCCCCCCCCCCCCC(=O)Nc1nccc(N)n1
MIC (Acinetobacter baumannii [8]): > 256 µg/mL
Activity (Acinetobacter baumannii [9]): 35.8%

SMILES: CCCCCCCCCCCCCC(=O)Nc1nc(Cl)cc(OC)n1
MIC (Acinetobacter baumannii [8]): > 256 µg/mL
Activity (Acinetobacter baumannii [9]): 49.5%

SMILES: CCCCCCCCCCCCCC(=O)Nc1nc(OC)cc(OC)n1
MIC (Acinetobacter baumannii [8]): > 256 µg/mL
Activity (Acinetobacter baumannii [9]): 59.3%

SMILES: CCCCCCCCCCCCCC(=O)Nc1nc(Cl)cc(N2CCOCC2)n1
MIC (Acinetobacter baumannii [8]): > 256 µg/mL
Activity (Acinetobacter baumannii [9]): 28.5%

SMILES: CCCCCCCCCCCCCC(=O)Nc1nc(N)cc(Cl)n1
MIC (Acinetobacter baumannii [10]): 128 µg/mL
fractional inhibitory concentration index (FICI) (Acinetobacter baumannii [11]): 0.25
IC50 (Acinetobacter baumannii [1]): 6.34 µM
fractional inhibitory concentration index (FICI) (Acinetobacter baumannii [12]): 0.25
IC50 (Acinetobacter baumannii [2]): 16.5 µM
IC50 (Acinetobacter baumannii [3]): 68.1 µM
IC50 (Acinetobacter baumannii [13]): 11.4 µM
MIC (Acinetobacter baumannii [14]): 256 µg/mL (≈ 721 µM)
IC50 (Acinetobacter baumannii [4]): 43.3 µM
MIC (Acinetobacter baumannii [8]): > 256 µg/mL
Activity (Acinetobacter baumannii [15]): 16.04
IC50 (Acinetobacter baumannii [5]): 39.3 µM
inhibition at 200 µM [6]: < 50%
MIC (Acinetobacter baumannii [16]): 0.125 µg/mL
Activity (3T3-L1 [17]): 100.68%
Activity (Acinetobacter baumannii [18]): 65%
Activity (Acinetobacter baumannii [19]): Active
Activity (3T3-L1 [20]): 100.89%
Activity (3T3-L1 [21]): 100.81%
fractional inhibitory concentration index (FICI) (Acinetobacter baumannii [22]): 0.25
inhibition at 200 µM (Escherichia coli): < 50%
inhibition at 200 µM (Pseudomonas aeruginosa): < 50%
Activity (3T3-L1 [23]): 101.81%
Activity (Acinetobacter baumannii [9]): 69.9%
MIC (Acinetobacter baumannii [24]): 64 µg/mL
inhibition at 200 µM (Staphylococcus aureus): < 50%
Activity (3T3-L1 [25]): 99.88%

SMILES: Cc1onc(-c2ccccc2)c1C(=O)N[C@@H]1C(=O)N2[C@@H]1SC(C)(C)[C@@H]2C(=O)O [OXACILLIN]
MIC (Acinetobacter baumannii [14]): 512 µg/mL (≈ 1280 µM)

SMILES: CCCCCCCCCCCCCC(=O)Nc1nc(Cl)cc(Cl)n1
MIC (Acinetobacter baumannii [8]): > 256 µg/mL
Activity (Acinetobacter baumannii [9]): 63.1%

SMILES: CCCCCCCCCCCCCC(=O)Nc1nccc(Cl)n1
MIC (Acinetobacter baumannii [8]): > 256 µg/mL
Activity (Acinetobacter baumannii [9]): 44.9%

SMILES: O=C(Nc1ncccn1)c1ccc([N+](=O)[O-])cc1
MIC (Acinetobacter baumannii [8]): > 256 µg/mL
Activity (Acinetobacter baumannii [9]): 25.1%

SMILES: O=C(Nc1ncccn1)c1cccc2ccccc12
MIC (Acinetobacter baumannii [8]): > 256 µg/mL
Activity (Acinetobacter baumannii [9]): 9.4%

SMILES: O=C(Nc1ncccn1)C(F)(F)C(F)(F)C(F)(F)F
MIC (Acinetobacter baumannii [8]): > 256 µg/mL
Activity (Acinetobacter baumannii [9]): 19.9%

SMILES: CCCCCCCCCCCCCC(=O)Nc1ncc(Br)cn1
MIC (Acinetobacter baumannii [8]): > 256 µg/mL
Activity (Acinetobacter baumannii [9]): 31.1%

More lines, main results first:

MIC (Acinetobacter baumannii [8]): > 256 µg/mL
SMILES: CCCCCCCCCCCC(=O)Nc1ncccn1
Activity (Acinetobacter baumannii [9]): 19.1%

MIC (Acinetobacter baumannii [8]): > 256 µg/mL
SMILES: CCCCCCCCCCCCCC(=O)Nc1ncccn1
Activity (Acinetobacter baumannii [9]): 36.3%

MIC (Acinetobacter baumannii [8]): > 256 µg/mL
SMILES: CCCCCCCC(=O)Nc1ncccn1
Activity (Acinetobacter baumannii [9]): 17.8%

MIC (Acinetobacter baumannii [8]): > 256 µg/mL
SMILES: O=C(CCc1ccccc1)Nc1ncccn1
Activity (Acinetobacter baumannii [9]): -0.2%

MIC (Acinetobacter baumannii [8]): > 256 µg/mL
SMILES: O=C(Nc1ncccn1)C1CCC1
Activity (Acinetobacter baumannii [9]): 26.8%

MIC (Acinetobacter baumannii [8]): > 256 µg/mL
SMILES: CCCCCCCCCC(=O)Nc1ncccn1
Activity (Acinetobacter baumannii [9]): 33.2%

MIC (Acinetobacter baumannii [8]): > 256 µg/mL
SMILES: CCOC(=O)CCC(=O)Nc1ncccn1
Activity (Acinetobacter baumannii [9]): 19.1%

MIC (Acinetobacter baumannii [8]): > 256 µg/mL
SMILES: O=C(Nc1ncccn1)c1ccccc1
Activity (Acinetobacter baumannii [9]): 28%

MIC (Acinetobacter baumannii [8]): > 256 µg/mL
SMILES: Cc1cc(C)c(C(=O)Nc2ncccn2)c(C)c1
Activity (Acinetobacter baumannii [9]): 26.9%

Reference: ChEMBL document CHEMBL5150056, “Synthesis and antibiofilm evaluation of N-acyl-2-aminopyrimidine derivatives against Acinetobacter baumannii” (Bioorg Med Chem, 2022)
